PubChem BioAssay AID1963440 (Molecular Pharmacology Branch, DTP, NCI, 2024)

Test system: NCI-H1417 complex spheroids, growth % test/control
Test: Anticancer human tumor NCI-H1417 cell line growth inhibition [Asc];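 also: spheroids exposed to compounds for 7 days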;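 as to viability, T/C: 100% = DMSO vehicle control wells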
Details: for IC50: curve of first compound; for viability, T/C: stronger effect = lower value
Procedure, shortened: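 Complex spheroids combining tumor cells with HUVEC endothelial cells and human MSCs, at 37 degrees C, 5% CO2; agents tested alone or combined, half-log dilutions from at or near clinical Cmax, or 10 microM if Cmax unknown.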

[1] = second compound 0.1 µM, first compound 0.0316 µM
[2] = second compound 0.1 µM, first compound 0.1 µM
[3] = second compound 0.1 µM, first compound 0.316 µM
[4] = second compound 0.1 µM, first compound 1 µM
[5] = second compound 0.1 µM, first compound 3.16 µM
[6] = second compound 0.1 µM, first compound 10 µM
[7] = second compound 0.316 µM, first compound 0.0316 µM
[8] = second compound 0.316 µM, first compound 0.1 µM
[9] = second compound 0.316 µM, first compound 0.316 µM
[10] = second compound 0.316 µM, first compound 1 µM
[11] = second compound 0.316 µM, first compound 3.16 µM
[12] = second compound 0.316 µM, first compound 10 µM
[13] = second compound 1 µM, first compound 0.0316 µM
[14] = second compound 1 µM, first compound 0.1 µM
[15] = second compound 1 µM, first compound 0.316 µM
[16] = second compound 1 µM, first compound 1 µM
[17] = second compound 1 µM, first compound 3.16 µM
[18] = second compound 1 µM, first compound 10 µM
[19] = second compound 3.16 µM, first compound 0.0316 µM
[20] = second compound 3.16 µM, first compound 0.1 µM
[21] = second compound 3.16 µM, first compound 0.316 µM
[22] = second compound 3.16 µM, first compound 1 µM
[23] = second compound 3.16 µM, first compound 3.16 µM
[24] = second compound 3.16 µM, first compound 10 µM
[25] = second compound 10 µM, first compound 0.0316 µM
[26] = second compound 10 µM, first compound 0.1 µM
[27] = second compound 10 µM, first compound 0.316 µM
[28] = second compound 10 µM, first compound 1 µM
[29] = second compound 10 µM, first compound 3.16 µM
[30] = second compound 10 µM, first compound 10 µM

## C=C(F)C(=O)N1CCN(c2nc(OCC3CCCN3C)nc3c2CCN(c2cccc4cccc(Cl)c24)C3)CC1CC#N (stereo not given) + Cc1c(S(C)(=O)=O)c(-c2cc(F)cc(N3CCN(c4ccc(NS(=O)(=O)c5ccc(NC(CCN6CCC(C(=O)OCCCP(=O)(O)O)CC6)CSc6ccccc6)c(S(=O)(=O)C(F)(F)F)c5)cc4)CC3)c2)c(-c2ccc(Cl)cc2)n1C(C)C
Second compound 0.1 µM
  IC50: 1.24 µM
Second compound 0.316 µM
  IC50: < 0.0316 µM
Second compound 1 µM
  IC50: < 0.0316 µM
Second compound 3.16 µM
  IC50: < 0.0316 µM
Second compound 10 µM
  IC50: < 0.0316 µM
[1]
  viability, T/C: 75.7%
[2]
  viability, T/C: 80%
[3]
  viability, T/C: 67.9%
[4]
  viability, T/C: 61.1%
[5]
  viability, T/C: 1.57%
[6]
  viability, T/C: 0.85%
[7]
  viability, T/C: 43.5%
[8]
  viability, T/C: 46%
[9]
  viability, T/C: 35.5%
[10]
  viability, T/C: 14%
[11]
  viability, T/C: 0.94%
[12]
  viability, T/C: 0.12%
[13]
  viability, T/C: 12.3%
[14]
  viability, T/C: 9.05%
[15]
  viability, T/C: 5.54%
[16]
  viability, T/C: 2.95%
[17]
  viability, T/C: 0.15%
[18]
  viability, T/C: 0.11%
[19]
  viability, T/C: 2.93%
[20]
  viability, T/C: 2.78%
[21]
  viability, T/C: 2.82%
[22]
  viability, T/C: 2.57%
[23]
  viability, T/C: 0.11%
[24]
  viability, T/C: 0.12%
[25]
  viability, T/C: 2.01%
[26]
  viability, T/C: 2.86%
[27]
  viability, T/C: 3.34%
[28]
  viability, T/C: 1.29%
[29]
  viability, T/C: 0.21%
[30]
  viability, T/C: 0.19%

## C=CC(=O)N1CCN(c2nc(=O)n(-c3c(C)ccnc3C(C)C)c3nc(-c4c(O)cccc4F)c(F)cc23)C(C)C1 (stereo not given) + Cc1c(S(C)(=O)=O)c(-c2cc(F)cc(N3CCN(c4ccc(NS(=O)(=O)c5ccc(NC(CCN6CCC(C(=O)OCCCP(=O)(O)O)CC6)CSc6ccccc6)c(S(=O)(=O)C(F)(F)F)c5)cc4)CC3)c2)c(-c2ccc(Cl)cc2)n1C(C)C
Second compound 0.1 µM
  IC50: > 10 µM
Second compound 0.316 µM
  IC50: 3.96 µM
Second compound 1 µM
  IC50: < 0.0316 µM
Second compound 3.16 µM
  IC50: < 0.0316 µM
Second compound 10 µM
  IC50: < 0.0316 µM
[1]
  viability, T/C: 79.9%
[2]
  viability, T/C: 97.7%
[3]
  viability, T/C: 94%
[4]
  viability, T/C: 88.7%
[5]
  viability, T/C: 79.5%
[6]
  viability, T/C: 76.5%
[7]
  viability, T/C: 50.7%
[8]
  viability, T/C: 52.8%
[9]
  viability, T/C: 59.2%
[10]
  viability, T/C: 55.8%
[11]
  viability, T/C: 60.4%
[12]
  viability, T/C: 26.5%
[13]
  viability, T/C: 12.8%
[14]
  viability, T/C: 19%
[15]
  viability, T/C: 19.2%
[16]
  viability, T/C: 27.2%
[17]
  viability, T/C: 15.7%
[18]
  viability, T/C: 6.31%
[19]
  viability, T/C: 3.89%
[20]
  viability, T/C: 4.22%
[21]
  viability, T/C: 4.64%
[22]
  viability, T/C: 3.72%
[23]
  viability, T/C: 3.98%
[24]
  viability, T/C: 3.94%
[25]
  viability, T/C: 2.86%
[26]
  viability, T/C: 2.89%
[27]
  viability, T/C: 3.43%
[28]
  viability, T/C: 2.4%
[29]
  viability, T/C: 3.1%
[30]
  viability, T/C: 3.85%

## CCN1C(C(=O)NC23CCC(C(=O)O)(CC2)CC3)C(c2cccc(Cl)c2F)C2(C(=O)Nc3cc(Cl)ccc32)C12CCCCC2 (stereo not given) + Cc1c(S(C)(=O)=O)c(-c2cc(F)cc(N3CCN(c4ccc(NS(=O)(=O)c5ccc(NC(CCN6CCC(C(=O)OCCCP(=O)(O)O)CC6)CSc6ccccc6)c(S(=O)(=O)C(F)(F)F)c5)cc4)CC3)c2)c(-c2ccc(Cl)cc2)n1C(C)C
Second compound 0.1 µM
  IC50: 0.584 µM
Second compound 0.316 µM
  IC50: < 0.00949 µM
Second compound 1 µM
  IC50: < 0.00949 µM
Second compound 3.16 µM
  IC50: < 0.00949 µM
Second compound 10 µM
  IC50: < 0.00949 µM
Second compound 0.1 µM, first compound 0.00949 µM
  viability, T/C: 78.9%
Second compound 0.1 µM, first compound 0.03 µM
  viability, T/C: 81.2%
Second compound 0.1 µM, first compound 0.0949 µM
  viability, T/C: 67.5%
Second compound 0.1 µM, first compound 0.3 µM
  viability, T/C: 58.7%
Second compound 0.1 µM, first compound 0.949 µM
  viability, T/C: 44.9%
Second compound 0.1 µM, first compound 3 µM
  viability, T/C: 16.4%
Second compound 0.316 µM, first compound 0.00949 µM
  viability, T/C: 35.7%
Second compound 0.316 µM, first compound 0.03 µM
  viability, T/C: 33.3%
Second compound 0.316 µM, first compound 0.0949 µM
  viability, T/C: 22.1%
Second compound 0.316 µM, first compound 0.3 µM
  viability, T/C: 16.4%
Second compound 0.316 µM, first compound 0.949 µM
  viability, T/C: 11.8%
Second compound 0.316 µM, first compound 3 µM
  viability, T/C: 1.6%
Second compound 1 µM, first compound 0.00949 µM
  viability, T/C: 11.4%
Second compound 1 µM, first compound 0.03 µM
  viability, T/C: 6.74%
Second compound 1 µM, first compound 0.0949 µM
  viability, T/C: 4.76%
Second compound 1 µM, first compound 0.3 µM
  viability, T/C: 2.15%
Second compound 1 µM, first compound 0.949 µM
  viability, T/C: 1.25%
Second compound 1 µM, first compound 3 µM
  viability, T/C: 0.65%
Second compound 3.16 µM, first compound 0.00949 µM
  viability, T/C: 2.36%
Second compound 3.16 µM, first compound 0.03 µM
  viability, T/C: 2.41%
Second compound 3.16 µM, first compound 0.0949 µM
  viability, T/C: 1.59%
Second compound 3.16 µM, first compound 0.3 µM
  viability, T/C: 1.03%
Second compound 3.16 µM, first compound 0.949 µM
  viability, T/C: 0.63%
Second compound 3.16 µM, first compound 3 µM
  viability, T/C: 0.39%
Second compound 10 µM, first compound 0.00949 µM
  viability, T/C: 1.88%
Second compound 10 µM, first compound 0.03 µM
  viability, T/C: 2.25%
Second compound 10 µM, first compound 0.0949 µM
  viability, T/C: 2.08%
Second compound 10 µM, first compound 0.3 µM
  viability, T/C: 1.02%
Second compound 10 µM, first compound 0.949 µM
  viability, T/C: 0.65%
Second compound 10 µM, first compound 3 µM
  viability, T/C: 0.29%

## CNC(C)C(=O)NC1CN(S(=O)(=O)c2cccc(S(=O)(=O)N3CCC4CCC(C(=O)NC(c5ccccc5)c5ccccc5)N4C(=O)C(NC(=O)C(C)NC)C3)c2)CCC2CCC(C(=O)NC(c3ccccc3)c3ccccc3)N2C1=O (stereo not given) + Cc1c(S(C)(=O)=O)c(-c2cc(F)cc(N3CCN(c4ccc(NS(=O)(=O)c5ccc(NC(CCN6CCC(C(=O)OCCCP(=O)(O)O)CC6)CSc6ccccc6)c(S(=O)(=O)C(F)(F)F)c5)cc4)CC3)c2)c(-c2ccc(Cl)cc2)n1C(C)C
Second compound 0.1 µM
  IC50: > 1 µM
Second compound 0.316 µM
  IC50: < 0.00316 µM
Second compound 1 µM
  IC50: < 0.00316 µM
Second compound 3.16 µM
  IC50: < 0.00316 µM
Second compound 10 µM
  IC50: < 0.00316 µM
Second compound 0.1 µM, first compound 0.00316 µM
  viability, T/C: 94.1%
Second compound 0.1 µM, first compound 0.01 µM
  viability, T/C: 95.3%
[1]
  viability, T/C: 80.2%
[2]
  viability, T/C: 74.7%
[3]
  viability, T/C: 84.6%
[4]
  viability, T/C: 81.1%
Second compound 0.316 µM, first compound 0.00316 µM
  viability, T/C: 42.4%
Second compound 0.316 µM, first compound 0.01 µM
  viability, T/C: 47.4%
[7]
  viability, T/C: 47.6%
[8]
  viability, T/C: 36.8%
[9]
  viability, T/C: 38%
[10]
  viability, T/C: 39.3%
Second compound 1 µM, first compound 0.00316 µM
  viability, T/C: 12.2%
Second compound 1 µM, first compound 0.01 µM
  viability, T/C: 10.3%
[13]
  viability, T/C: 9.05%
[14]
  viability, T/C: 8.75%
[15]
  viability, T/C: 4.64%
[16]
  viability, T/C: 4.71%
Second compound 3.16 µM, first compound 0.00316 µM
  viability, T/C: 3.82%
Second compound 3.16 µM, first compound 0.01 µM
  viability, T/C: 2.79%
[19]
  viability, T/C: 2.43%
[20]
  viability, T/C: 2.42%
[21]
  viability, T/C: 2.07%
[22]
  viability, T/C: 1.84%
Second compound 10 µM, first compound 0.00316 µM
  viability, T/C: 2.6%
Second compound 10 µM, first compound 0.01 µM
  viability, T/C: 1.96%
[25]
  viability, T/C: 3.22%
[26]
  viability, T/C: 1.45%
[27]
  viability, T/C: 1.71%
[28]
  viability, T/C: 1.47%
